Measurements taken from ChEMBL document CHEMBL3217472, “Identification of novel urea derivatives as PTP1B inhibitors: synthesis, biological evaluation and structureactivity relationships” (Medchemcomm, 2013).
The source made the active and inactive calls. No cut-off for these calls is given here.

Tests used:
[1] = molecular target: T1, Tyrosine-protein phosphatase non-receptor type 1 (Homo sapiens) (UniProt P18031); assay: Inhibition of human recombinant PTP1B using phosphopeptide as substrate at 10 uM after 30 mins by malachite green assay relative to control
T1 sequence (whole entry): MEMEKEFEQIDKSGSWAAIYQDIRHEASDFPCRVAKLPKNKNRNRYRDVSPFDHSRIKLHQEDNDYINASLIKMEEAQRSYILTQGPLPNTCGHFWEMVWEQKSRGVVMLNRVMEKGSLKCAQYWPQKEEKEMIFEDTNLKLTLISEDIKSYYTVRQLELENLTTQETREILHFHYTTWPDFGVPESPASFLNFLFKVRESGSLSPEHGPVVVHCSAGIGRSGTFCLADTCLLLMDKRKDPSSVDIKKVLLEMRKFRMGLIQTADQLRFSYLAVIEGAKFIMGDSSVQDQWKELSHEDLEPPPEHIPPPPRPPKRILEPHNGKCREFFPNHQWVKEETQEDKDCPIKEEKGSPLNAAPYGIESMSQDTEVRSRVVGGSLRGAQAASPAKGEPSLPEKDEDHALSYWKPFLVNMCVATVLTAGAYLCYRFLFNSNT

Rattus norvegicus [2] = assay: Antihyperglycemic activity in streptozotocin-induced Sprague-Dawley albino rat diabetic model assessed as reduction of blood glucose AUC (0 to 24 hrs) at 100 mg/kg, po by glucometer relative to control; format: functional; parameters: scale not given: the % may be the effect or the level left
Rattus norvegicus [3] = assay: Antihyperglycemic activity in streptozotocin-induced Sprague-Dawley albino rat diabetic model assessed as reduction of blood glucose AUC (0 to 5 hrs) at 100 mg/kg, po by glucometer relative to control; format: functional; parameters: scale not given: the % may be the effect or the level left
[4] = molecular target: T2, Tyrosine-protein phosphatase non-receptor type 1 (Homo sapiens, UniProt P18031); assay: Inhibition of human recombinant PTP1B using phosphopeptide as substrate after 30 mins by malachite green assay
T2 sequence (P18031 whole entry): T1 sequence (whole entry)

Mus musculus [5] = assay: Antihyperglycemic activity in C57BL/Ks db/db mouse assessed as reduction of blood glucose level at 10 mg/kg measured from day 6 to day 14; format: functional, organism-based; parameters: dose 10 mg/kg
Mus musculus [6] = assay: In vivo inhibition of PTP1B in skeletal muscle of C57BL/Ks db/db mouse assessed as upregulation of p-IRSI protein expression at 10 mg/kg, po by Western blot analysis relative to vehicle-treated sham control; format: functional, Muscle tissue
Mus musculus [7] = assay: Antidiabetic activity in C57BL/Ks db/db mouse assessed as improvement of HOMA index at 10 mg/kg relative to vehicle-treated sham control; format: functional
Mus musculus [8] = assay: Antidiabetic activity in C57BL/Ks db/db mouse assessed as restoration of altered insulin level in serum at 10 mg/kg relative to vehicle-treated sham control; format: functional
Mus musculus [9] = assay: Antidiabetic activity in C57BL/Ks db/db mouse assessed as normalization of fasting blood glucose level at 10 mg/kg relative to vehicle-treated sham control; format: functional
Mus musculus [10] = assay: Antidyslipidemic activity in C57BL/Ks db/db mouse assessed as increase in serum HDL-cholesterol level at 10 mg/kg measured on day 10 to 15 relative to vehicle-treated sham control; format: functional
Mus musculus [11] = assay: Antidyslipidemic activity in C57BL/Ks db/db mouse assessed as reduction of serum cholesterol level at 10 mg/kg measured on day 10 to 15 relative to vehicle-treated sham control; format: functional
Mus musculus [12] = assay: Antidyslipidemic activity in C57BL/Ks db/db mouse assessed as reduction of serum triglyceride level at 10 mg/kg measured on day 10 to 15 relative to vehicle-treated sham control; format: functional
Mus musculus [13] = assay: Antihyperglycemic activity in C57BL/Ks db/db mouse assessed as reduction of blood glucose AUC (0 to 120 mins) at 10 mg/kg, po measured on day 15 by OGTT relative to vehicle-treated sham control; format: functional
Mus musculus [14] = assay: Antihyperglycemic activity in C57BL/Ks db/db mouse assessed as reduction of blood glucose AUC (0 to 120 mins) at 10 mg/kg measured on day 10 by OGTT relative to vehicle-treated sham control; format: functional
Mus musculus [15] = assay: Antihyperglycemic activity in C57BL/Ks db/db mouse assessed as reduction of blood glucose level at 30 mg/kg measured from day 8 to day 14; format: functional, organism-based; parameters: dose 30 mg/kg
Mus musculus [16] = assay: In vivo inhibition of PTP1B in skeletal muscle of C57BL/Ks db/db mouse assessed as upregulation of p-IRSI protein expression at 30 mg/kg, po by Western blot analysis relative to vehicle-treated sham control; format: functional, Muscle tissue
Mus musculus [17] = assay: Antidiabetic activity in C57BL/Ks db/db mouse assessed as improvement of HOMA index at 30 mg/kg relative to vehicle-treated sham control; format: functional
Mus musculus [18] = assay: Antidiabetic activity in C57BL/Ks db/db mouse assessed as restoration of altered insulin level in serum at 30 mg/kg relative to vehicle-treated sham control; format: functional
Mus musculus [19] = assay: Antidiabetic activity in C57BL/Ks db/db mouse assessed as normalization of fasting blood glucose level at 30 mg/kg relative to vehicle-treated sham control; format: functional
Mus musculus [20] = assay: Antidyslipidemic activity in C57BL/Ks db/db mouse assessed as increase in serum HDL-cholesterol level at 30 mg/kg measured on day 10 to 15 relative to vehicle-treated sham control; format: functional
Mus musculus [21] = assay: Antidyslipidemic activity in C57BL/Ks db/db mouse assessed as reduction of serum cholesterol level at 30 mg/kg measured on day 10 to 15 relative to vehicle-treated sham control; format: functional
Mus musculus [22] = assay: Antidyslipidemic activity in C57BL/Ks db/db mouse assessed as reduction of serum triglyceride level at 30 mg/kg measured on day 10 to 15 relative to vehicle-treated sham control; format: functional
Mus musculus [23] = assay: Antihyperglycemic activity in C57BL/Ks db/db mouse assessed as reduction of blood glucose AUC (0 to 120 mins) at 30 mg/kg measured on day 15 by OGTT relative to vehicle-treated sham control; format: functional
Mus musculus [24] = assay: Antihyperglycemic activity in C57BL/Ks db/db mouse assessed as reduction of blood glucose AUC (0 to 120 mins) at 30 mg/kg measured on day 10 by OGTT relative to vehicle-treated sham control; format: functional
[25] = molecular target: T2, Tyrosine-protein phosphatase non-receptor type 1; assay: Competitive inhibition of human recombinant PTP1B using IR5 as substrate by Lineweaver-Burk plot analysis

Row | inhibition [1] [%] | Compound | Activity (Rattus norvegicus [2]) [%] | Activity (Rattus norvegicus [3]) [%] | also measured
1 | 68.4 | O=C(NCc1cccc([N+](=O)[O-])c1)NCc1ccc(-c2ccc([N+](=O)[O-])cc2)o1 | 20 | 18.4 | IC50 [4]: 8.06 µM
2 | 2.85 | COc1ccc(CNC(=O)NCc2cccc([N+](=O)[O-])c2)cc1 | – | – | –
3 | 60.9 | CC(=O)Nc1ccc(CNC(=O)NCc2ccccc2)cc1 | 14.8 | 14.2 | IC50 [4]: 9.39 µM
4 | 78.8 | COc1cc(OC)c(CNC(=O)NCc2ccccc2)c(OC)c1 | 18.6 | 16.1 | IC50 [4]: 7.6 µM
5 | 13.7 | COc1cc(Cl)c(CNC(=O)NCc2ccccc2)c(Cl)c1OC | – | – | –
6 | 14.9 | COc1cc(CNC(=O)NCc2ccccc2)ccc1O | – | – | –
7 | 31.2 | O=C(NCc1ccccc1)NCc1ccsc1 | – | – | –
8 | 46.8 | O=C(NCc1cccc([N+](=O)[O-])c1)NCc1ccco1 | – | – | –
9 | 79.4 | O=C(NCc1cccc([N+](=O)[O-])c1)NCc1ccccc1[N+](=O)[O-] | 21.7 | 20.4 | Activity (Mus musculus [15]): Active; fold change (FC) (Mus musculus [16]): 1.25; Efficacy (Mus musculus [17]): 69.7%; Efficacy (Mus musculus [18]): 34.5%; Efficacy (Mus musculus [19]): 52.3%; Efficacy (Mus musculus [20]): 46.8%; Efficacy (Mus musculus [21]): 16.3%; Efficacy (Mus musculus [22]): 8.9%; Efficacy (Mus musculus [23]): 35.9%; Efficacy (Mus musculus [24]): 24.1%; Ki [25]: 7.88 µM; IC50 [4]: 7.47 µM

Further lines, the compound ahead of its results:

Row | Compound | inhibition [1] [%] | Activity (Rattus norvegicus [2]) [%] | Activity (Rattus norvegicus [3]) [%] | also measured
10 | O=C(NCc1cccc(Cl)c1)NCc1cccc([N+](=O)[O-])c1 | 32.9 | – | – | –
11 | CCc1ccc(CCOc2ccc(CC3SC(=O)NC3=O)cc2)nc1 (stereo unspecified) [PIOGLITAZONE] | – | – | – | Activity (Mus musculus [5]): Active; fold change (FC) (Mus musculus [6]): 1.37; Efficacy (Mus musculus [7]): 70.3%; Efficacy (Mus musculus [8]): 46.1%; Efficacy (Mus musculus [9]): 64.7%; Efficacy (Mus musculus [10]): 11.1%; Efficacy (Mus musculus [11]): 9.17%; Efficacy (Mus musculus [12]): 12.6%; Efficacy (Mus musculus [13]): 52.9%; Efficacy (Mus musculus [14]): 40.8%
12 | CN(C)C(=N)NC(=N)N [METFORMIN] | – | 23.3 | 21 | –
13 | COc1cc(Cl)c(CNC(=O)NCc2cccc([N+](=O)[O-])c2)c(Cl)c1OC | 56.6 | 2.54 | 7.26 | IC50 [4]: 9.91 µM
14 | COc1cc(CNC(=O)NCc2cccc([N+](=O)[O-])c2)cc(OC)c1 | 2.81 | – | – | –
15 | O=C(NCc1ccccc1)NCc1cccc([N+](=O)[O-])c1 | 2.4 | – | – | –
16 | CC(C)(C)c1cc(CNC(=O)NCc2ccccc2)c(O)c(C(C)(C)C)c1 | 18.9 | – | – | –
17 | COc1cc(CNC(=O)NCc2cccc([N+](=O)[O-])c2)cc(OC)c1OC | 7.5 | – | – | –
18 | O=C(NCc1ccccc1)NCc1ccccc1[N+](=O)[O-] | 2.1 | – | – | –
19 | O=C(NCc1ccccc1)NCc1c[nH]c2ccc(Cl)cc12 | 19 | – | – | –
20 | O=C(NCc1ccccc1)NCc1ccc([N+](=O)[O-])cc1 | 0.9 | – | – | –
21 | Cc1ccc(C(=O)Nc2ccc(S(=O)(=O)O)c3cc(S(=O)(=O)O)cc(S(=O)(=O)O)c23)cc1NC(=O)c1cccc(NC(=O)Nc2cccc(C(=O)Nc3cc(C(=O)Nc4ccc(S(=O)(=O)O)c5cc(S(=O)(=O)O)cc(S(=O)(=O)O)c45)ccc3C)c2)c1 | 60 | – | – | –
22 | O=C(NCc1ccccc1)NCc1ccc(-c2ccc([N+](=O)[O-])cc2)o1 | 21.4 | 18.8 | 12.5 | –
23 | O=C(NCc1cccc([N+](=O)[O-])c1)NCc1cccc(-c2cccc([N+](=O)[O-])c2)n1 | 40 | – | – | –
